From patent US4613505A, “Ester of flurbiprofen and emulsion containing the same” (The Green Cross Corporation, priority 1983, dated 1986)
Where two headings read alike, the source gives them in different places.

Experiment: Hydrolysis in human articular synovia
Type: in vitro ADME
Conditions: for metabolised at 1 h: human, articular synovia, 60 minutes at 37° C., read-out: Hydrolysis rate
Protocol: Into 1 ml of articular synovia of a patient with rheumatoid or osteoarthritis, was added 10 ml of an acetone solution of ethyl 2-(2-fluoro-4-biphenylyl)propionate(ethyl flurbiprofen ester: compound 1) or acetoxymethyl 2-(2-fluoro-4-biphenylyl)propionate(acetoxymethyl flurbiprofen ester; compound 2) (each being contained in an equimolar amount to 50 ng of flurbiprofen), respectively, and the mixture was incubated for 60 minutes at 37° C. The concentration of flurbiprofen formed by hydrolysis was then determined by gas chromatography.

| Compound | hydrolysis in human articular synovia (in words) | metabolised at 1 h (patient five (Rheumatoid)) [%] | metabolised at 1 h (patient four (Rheumatoid)) [%] | metabolised at 1 h (patient one (Rheumatoid)) [%] | metabolised at 1 h (patient three (Osteoarthritis)) [%] | metabolised at 1 h (patient two (Unknown)) [%] |
| --- | --- | --- | --- | --- | --- | --- |
| CCOC(=O)C(C)c1ccc(-c2ccccc2)c(F)c1 (stereo not drawn) [Compound 1, ethyl 2-(2-fluoro-4-biphenylyl)propionate] | substantially not hydrolyzed | 0 | 0 | 25.8 | 0 | 2 |
| CC(=O)OCOC(=O)C(C)c1ccc(-c2ccccc2)c(F)c1 (stereo not drawn) [Compound 2, acetoxymethyl 2-(2-fluoro-4-biphenylyl)propionate] | effectively hydrolyzed | 65.7 | 64.1 | 91.3 | 64.7 | 84.4 |
